Literature values as cited in patent EP3315966A1, “STANDARD THYROID GLAND HORMONE SOLUTION” (Fujirebio Inc., priority 2015, dated 2017).

Settings: buffer substance of the standard solution

## O=S(=O)(O)CCCNC1CCCCC1 [CAPS, N-cyclohexyl-3-aminopropanesulfonic acid]
  pKa: 10.4
